Values of other authors, collected in patent publication US5753436A, “Chemiluminescent energy transfer assays” (Tropix, Inc., priority 1995, dated 1998).

Test system: alkaline phosphatase

For O=P(O)(O)Oc1ccc2nc(-c3nc4ccccc4s3)sc2c1 [AttoPhos], the Km is listed as 30 µM and the turnover number (2.40M DEA (diethanolamine) pH 9.0, 0.23 mM MgCl2, 0.005% NaN by weight) is listed as 85,400 molecules of AttoPhos per minu.
